PubChem BioAssay (NCI)
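Results reflect a 48-hour exposure of cells in 96-well plates to compound at five concentrations. At the TGI there is no net growth.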

Legend:
Assay in all cases: NCI-60 cell line screen, 48 h
SN12C renal = tested on: SN12C renal
ACHN renal = tested on: ACHN renal
NCI-H23 lung = tested on: NCI-H23 lung
EKVX NSCLC = tested on: EKVX NSCLC
PC-3 prostate = tested on: PC-3 prostate
HS 578T breast = tested on: HS 578T breast
HOP-92 NSCLC = tested on: HOP-92 NSCLC
A549 NSCLC = tested on: A549 NSCLC
K-562 leukemia = tested on: K-562 leukemia
OVCAR-5 ovarian = tested on: OVCAR-5 ovarian
MOLT-4 leukemia = tested on: MOLT-4 leukemia
HOP-62 NSCLC = tested on: HOP-62 NSCLC
LOX IMVI melanoma = tested on: LOX IMVI melanoma
DU-145 prostate = tested on: DU-145 prostate
IGROV1 ovarian = tested on: IGROV1 ovarian
UACC-62 melanoma = tested on: UACC-62 melanoma
NCI/ADR-RES ovarian = tested on: NCI/ADR-RES ovarian
SF-295 CNS = tested on: SF-295 CNS
M14 melanoma = tested on: M14 melanoma
NCI-H522 lung = tested on: NCI-H522 lung
SK-OV-3 ovarian = tested on: SK-OV-3 ovarian
HCT-116 colon = tested on: HCT-116 colon
MALME-3M melanoma = tested on: MALME-3M melanoma
RPMI-8226 leukemia = tested on: RPMI-8226 leukemia
SW-620 colon = tested on: SW-620 colon
MDA-MB-435 = tested on: MDA-MB-435
TK-10 renal = tested on: TK-10 renal
HCT-15 colon = tested on: HCT-15 colon
SF-268 CNS = tested on: SF-268 CNS
UACC-257 melanoma = tested on: UACC-257 melanoma
CCRF-CEM leukemia = tested on: CCRF-CEM leukemia
MDA-N = tested on: MDA-N
OVCAR-8 ovarian = tested on: OVCAR-8 ovarian
SF-539 CNS = tested on: SF-539 CNS
MCF7 breast = tested on: MCF7 breast
BT-549 breast = tested on: BT-549 breast
786-0 renal = tested on: 786-0 renal
KM12 colon = tested on: KM12 colon
SNB-19 CNS = tested on: SNB-19 CNS
HL-60(TB) leukemia = tested on: HL-60(TB) leukemia
OVCAR-4 ovarian = tested on: OVCAR-4 ovarian
SK-MEL-5 melanoma = tested on: SK-MEL-5 melanoma
NCI-H460 lung = tested on: NCI-H460 lung
T-47D breast = tested on: T-47D breast
COLO 205 colon = tested on: COLO 205 colon
CAKI-1 renal = tested on: CAKI-1 renal
MDA-MB-231 breast = tested on: MDA-MB-231 breast
OVCAR-3 ovarian = tested on: OVCAR-3 ovarian
U251 CNS = tested on: U251 CNS
UO-31 renal = tested on: UO-31 renal
A498 renal = tested on: A498 renal
SK-MEL-2 melanoma = tested on: SK-MEL-2 melanoma
SK-MEL-28 melanoma = tested on: SK-MEL-28 melanoma
NCI-H226 lung = tested on: NCI-H226 lung
HT29 colon = tested on: HT29 colon
HCC-2998 colon = tested on: HCC-2998 colon
SNB-75 CNS = tested on: SNB-75 CNS
RXF 393 renal = tested on: RXF 393 renal
SR leukemia = tested on: SR leukemia

Molecule `CCOC(=O)C1=C(C)N(c2ccc(Cl)cc2)C2(O)C=CC(=O)C3=C(O)c4ccccc4C(=O)C312` (centres undefined) has a TGI (SN12C renal) of 13.5 µM, a TGI (ACHN renal) of 16.4 µM and a TGI (NCI-H23 lung) of 25.4 µM. The TGI (EKVX NSCLC) was 21.4 µM, the TGI (PC-3 prostate) was 15.8 µM and the TGI (HS 578T breast) was 23.1 µM. For the same molecule, the TGI (HOP-92 NSCLC) was 8.98 µM, the TGI (A549 NSCLC) was 21.8 µM and the TGI (K-562 leukemia) was 18.1 µM. For the same molecule, the TGI (OVCAR-5 ovarian) was 30.7 µM, the TGI (MOLT-4 leukemia) was 8.65 µM and the TGI (HOP-62 NSCLC) was 18.9 µM. For the same molecule, the TGI (LOX IMVI melanoma) was 14 µM, the TGI (DU-145 prostate) was 21.1 µM and the TGI (IGROV1 ovarian) was 12.9 µM. It also gave a TGI (UACC-62 melanoma) of 9.01 µM, a TGI (NCI/ADR-RES ovarian) of 12.6 µM and a TGI (SF-295 CNS) of 22.4 µM. It also gave a TGI (M14 melanoma) of 12.4 µM, a TGI (NCI-H522 lung) of 6.45 µM and a TGI (SK-OV-3 ovarian) of 30.7 µM. It also gave a TGI (HCT-116 colon) of 11.6 µM, a TGI (MALME-3M melanoma) of 4.53 µM and a TGI (RPMI-8226 leukemia) of 4.42 µM. For the same molecule, the TGI (SW-620 colon) was 12.7 µM, the TGI (MDA-MB-435) was 11.3 µM and the TGI (TK-10 renal) was 8.03 µM. The TGI (HCT-15 colon) was 14 µM, the TGI (SF-268 CNS) was 6.86 µM and the TGI (UACC-257 melanoma) was 42.7 µM. For the same molecule, the TGI (CCRF-CEM leukemia) was 6.69 µM, the TGI (MDA-N) was 18.2 µM and the TGI (OVCAR-8 ovarian) was 19.1 µM. For the same molecule, the TGI (SF-539 CNS) was 18.1 µM, the TGI (MCF7 breast) was 8.72 µM and the TGI (BT-549 breast) was 28 µM. For the same molecule, the TGI (786-0 renal) was 4.07 µM, the TGI (KM12 colon) was 20.4 µM and the TGI (SNB-19 CNS) was 33.1 µM. It also gave a TGI (HL-60(TB) leukemia) of 5.77 µM, a TGI (OVCAR-4 ovarian) of 8.33 µM and a TGI (SK-MEL-5 melanoma) of 20.4 µM. For the same molecule, the TGI (NCI-H460 lung) was 18.2 µM, the TGI (T-47D breast) was 15.8 µM and the TGI (COLO 205 colon) was 11.7 µM. It also gave a TGI (CAKI-1 renal) of 9.21 µM, a TGI (MDA-MB-231 breast) of 25 µM and a TGI (OVCAR-3 ovarian) of 5.84 µM. The TGI (U251 CNS) was 15.6 µM, the TGI (UO-31 renal) was 15.8 µM and the TGI (A498 renal) was 30 µM. It also gave a TGI (SK-MEL-2 melanoma) of 16.2 µM.
For `O/N=C(\CC(O)(C(F)(F)F)C(F)(F)F)c1cccs1`, the TGI (SN12C renal) was greater than 10 µM, the TGI (ACHN renal) was greater than 10 µM and the TGI (NCI-H23 lung) was greater than 10 µM. The TGI (EKVX NSCLC) was greater than 10 µM, the TGI (PC-3 prostate) was greater than 10 µM and the TGI (HS 578T breast) was greater than 10 µM. It also gave a TGI (HOP-92 NSCLC) greater than 10 µM, a TGI (A549 NSCLC) greater than 10 µM and a TGI (K-562 leukemia) greater than 10 µM. The TGI (OVCAR-5 ovarian) was greater than 10 µM, the TGI (MOLT-4 leukemia) was greater than 10 µM and the TGI (HOP-62 NSCLC) was greater than 10 µM. It also gave a TGI (LOX IMVI melanoma) greater than 10 µM, a TGI (DU-145 prostate) greater than 10 µM and a TGI (IGROV1 ovarian) greater than 10 µM. The TGI (UACC-62 melanoma) was greater than 10 µM, the TGI (NCI/ADR-RES ovarian) was greater than 10 µM and the TGI (SF-295 CNS) was greater than 10 µM. The TGI (M14 melanoma) was greater than 10 µM, the TGI (NCI-H522 lung) was greater than 10 µM and the TGI (SK-OV-3 ovarian) was greater than 10 µM. For the same molecule, the TGI (HCT-116 colon) was greater than 10 µM, the TGI (MALME-3M melanoma) was greater than 10 µM and the TGI (RPMI-8226 leukemia) was greater than 10 µM. It also gave a TGI (SW-620 colon) greater than 10 µM, a TGI (SK-MEL-28 melanoma) greater than 10 µM and a TGI (MDA-MB-435) greater than 10 µM. The TGI (TK-10 renal) was greater than 10 µM, the TGI (HCT-15 colon) was greater than 10 µM and the TGI (SF-268 CNS) was greater than 10 µM. The TGI (UACC-257 melanoma) was greater than 10 µM, the TGI (CCRF-CEM leukemia) was greater than 10 µM and the TGI (NCI-H226 lung) was greater than 10 µM. The TGI (MDA-N) was greater than 10 µM, the TGI (OVCAR-8 ovarian) was greater than 10 µM and the TGI (SF-539 CNS) was greater than 10 µM. It also gave a TGI (MCF7 breast) greater than 10 µM, a TGI (HT29 colon) greater than 10 µM and a TGI (BT-549 breast) greater than 10 µM. For the same molecule, the TGI (786-0 renal) was greater than 10 µM, the TGI (KM12 colon) was greater than 10 µM and the TGI (SNB-19 CNS) was greater than 10 µM. The TGI (HL-60(TB) leukemia) was greater than 10 µM, the TGI (OVCAR-4 ovarian) was greater than 10 µM and the TGI (SK-MEL-5 melanoma) was greater than 10 µM. For the same molecule, the TGI (NCI-H460 lung) was greater than 10 µM, the TGI (HCC-2998 colon) was greater than 10 µM and the TGI (T-47D breast) was greater than 10 µM. For the same molecule, the TGI (COLO 205 colon) was greater than 10 µM, the TGI (SNB-75 CNS) was greater than 10 µM and the TGI (CAKI-1 renal) was greater than 10 µM. It also gave a TGI (MDA-MB-231 breast) greater than 10 µM, a TGI (OVCAR-3 ovarian) greater than 10 µM and a TGI (RXF 393 renal) greater than 10 µM. The TGI (U251 CNS) was greater than 10 µM, the TGI (UO-31 renal) was greater than 10 µM and the TGI (A498 renal) was greater than 10 µM. For the same molecule, the TGI (SK-MEL-2 melanoma) was greater than 10 µM.
Work on `c1ccc(C2=NN2c2ccccc2)cc1` yielded a TGI (SN12C renal) greater than 100 µM, a TGI (ACHN renal) greater than 100 µM and a TGI (NCI-H23 lung) greater than 100 µM. For the same molecule, the TGI (EKVX NSCLC) was greater than 100 µM, the TGI (PC-3 prostate) was greater than 100 µM and the TGI (HOP-92 NSCLC) was greater than 100 µM. For the same molecule, the TGI (A549 NSCLC) was greater than 100 µM, the TGI (K-562 leukemia) was greater than 100 µM and the TGI (OVCAR-5 ovarian) was greater than 100 µM. For the same molecule, the TGI (MOLT-4 leukemia) was greater than 100 µM, the TGI (HOP-62 NSCLC) was greater than 100 µM and the TGI (LOX IMVI melanoma) was greater than 100 µM. For the same molecule, the TGI (DU-145 prostate) was greater than 100 µM, the TGI (IGROV1 ovarian) was greater than 100 µM and the TGI (UACC-62 melanoma) was greater than 100 µM. For the same molecule, the TGI (NCI/ADR-RES ovarian) was greater than 100 µM, the TGI (SF-295 CNS) was greater than 100 µM and the TGI (SR leukemia) was greater than 100 µM. It also gave a TGI (M14 melanoma) greater than 100 µM, a TGI (NCI-H522 lung) greater than 100 µM and a TGI (SK-OV-3 ovarian) greater than 100 µM. It also gave a TGI (MALME-3M melanoma) greater than 100 µM, a TGI (SW-620 colon) greater than 100 µM and a TGI (SK-MEL-28 melanoma) greater than 100 µM. The TGI (MDA-MB-435) was greater than 100 µM, the TGI (TK-10 renal) was greater than 100 µM and the TGI (HCT-15 colon) was greater than 100 µM. For the same molecule, the TGI (SF-268 CNS) was greater than 100 µM, the TGI (UACC-257 melanoma) was greater than 100 µM and the TGI (CCRF-CEM leukemia) was greater than 100 µM. For the same molecule, the TGI (NCI-H226 lung) was greater than 100 µM, the TGI (MDA-N) was greater than 100 µM and the TGI (OVCAR-8 ovarian) was greater than 100 µM. The TGI (SF-539 CNS) was greater than 100 µM, the TGI (MCF7 breast) was greater than 100 µM and the TGI (HT29 colon) was greater than 100 µM. The TGI (BT-549 breast) was greater than 100 µM, the TGI (KM12 colon) was greater than 100 µM and the TGI (SNB-19 CNS) was greater than 100 µM. It also gave a TGI (OVCAR-4 ovarian) greater than 100 µM, a TGI (SK-MEL-5 melanoma) greater than 100 µM and a TGI (NCI-H460 lung) greater than 100 µM. For the same molecule, the TGI (HCC-2998 colon) was greater than 100 µM, the TGI (T-47D breast) was greater than 100 µM and the TGI (COLO 205 colon) was greater than 100 µM. For the same molecule, the TGI (SNB-75 CNS) was greater than 100 µM, the TGI (CAKI-1 renal) was greater than 100 µM and the TGI (MDA-MB-231 breast) was greater than 100 µM. For the same molecule, the TGI (OVCAR-3 ovarian) was greater than 100 µM, the TGI (RXF 393 renal) was greater than 100 µM and the TGI (U251 CNS) was greater than 100 µM. The TGI (UO-31 renal) was greater than 100 µM, the TGI (A498 renal) was greater than 100 µM and the TGI (SK-MEL-2 melanoma) was greater than 100 µM.
